# Experiments:
# islet cells = conditions: direct mechanism on islet cells; cited from earlier work
# islet cells (β-cells) = assay: In vivo recording of [Ca2+]i changes in islets engrafted in the anterior chamber of the eye (Fluo-4/Fura-Red ratio); design: species or system mouse; conditions: glibenclamide 1 mg/kg i.v.; remained high throughout the recording
# [1] = Blood glucose after intravenous glibenclamide; type: in vivo, mouse; conditions: glibenclamide intravenously (1 mg/kg, tail vein); data not shown
# [2] = Blood glucose after intravenous alloxan; conditions: alloxan 75 mg/kg i.v., after 24 h, n=6
# [3] = tested on: β-cells of RIP-GFP islet grafts; conditions: mouse, in vivo
smiles,measurement,setting,value
FC(F)OC(Cl)C(F)(F)F (stereo not drawn) [Isoflurane],glucose stimulated insulin release,islet cells,inhibit
COc1ccc(Cl)cc1C(=O)NCCc1ccc(S(=O)(=O)NC(=O)NC2CCCCC2)cc1 [glibenclamide],[Ca2+]i in islet cells (Fluo-4/Fura-Red fluorescence ratio),islet cells (β-cells),prominent rises
same,blood glucose levels,[1],decreased blood glucose levels
O=C1NC(=O)C(=O)C(=O)N1 [alloxan],blood glucose concentration,[2],25.0 ± 1.3 mmol/L
same,GFP fluorescence of islet grafts,[3],substantial loss of GFP fluorescence
same,annexin V-APC labelling of islet grafts,[3],strong labelling
